Experiments:
[1] = Acute toxicity, oral, rats; details: rat, in vivo, fasting rats, 14 days observation
Method: (§1) Acute toxicity is determined by oral administration of the test material in fasting mice and rats.
(§2) The compound of Example 1 is homogeneously suspended in a carrier comprising a 3% gum arabic solution.
(§3) The animals are kept under observation during 14 days after the treatment.

[2] = Acute toxicity, oral, mice; details: mouse, in vivo, fasting mice, 14 days observation
Method: as §1, §2, §3

[3] = test system: phenylbenzoquinone-induced writhing movements; assay: Analgesic activity, Siegmund Test (phenylbenzoquinone writhing); assay type: in vivo; details: mice; for ED50: Mus musculus, ip; for ED50 / Siegmund ED50: test material 1 hour before phenylbenzoquinone i.p.
Method: Siegmund Test (Proc. Soc. Exp. Biol. Med., 1957, 95, 729-31)
Intraperitoneal injection of 0.25 ml of an aqueous-alcoholic 2-phenyl-1,4-benzoquinone solution at a concentration of 0.02% induces in mice a specific syndrome characterized by the stretching of the hind paws and writhing movements of the trunk.
The tests are carried out with homogeneous lots of 20-30 mice having an average weight of 20 g.
The animals are administered the test material at time zero. One hour later, phenylbenzoquinone is administered by the intraperitoneal route. The animals are individually kept under observation during 5 minutes, between the fifth and the tenth minute after phenylbenzoquinone injection.
The present activity of the test material is evaluated by comparing the number of writhing movements of the treated animals with respect to the reference animals.

[4] = test system: carrageenin-induced edema; assay: Acute carrageenin-induced edema; assay type: in vivo; details: oral, male rats; for ED50: Rattus norvegicus; for ED50 / Carrageenin-induced edema ED50: 1 hour prior to carrageenin, edema at 3 hours; for Carrageenin-induced edema percent protection: 3 hours; for Carrageenin-induced edema ED50: 180 min
Method: c. Anti-inflammatory activity
1- Acute carrageenin-induced edema (Winster C. A., Risley E. A., Nuss G.W., Proc. Soc. Biol. Med., 1962, 3, 544-7)
Subplantar injection in the paw of rats of 0.05 ml of an aqueous gel containing 1% carrageenin induces a local edema which may be measured by means of an electric mercury plethysmometer.
Determination of the volume of the forepaw prior, and three hours after the carrageenin injection, makes it possible to calculate the percent inflammation.
The treatment is administered orally, one hour prior to carrageenin administration.
The tests are conducted only with homogeneous lots of 10 male rats weighing 180 g ± 10 g.
The resulting edema is evaluated for each animal by means of the ratio: [formula] in which:
Vo of the paw at time 3 hrs Vo = volume of the paw at time zero
The protection noted under the effect of the test material may be evaluated by comparing the percent edema determined in the treated lot with respect to the reference lot.

[5] = test system: Turfyl nicotinate (Trafuril)-induced erythema; assay: Turfyl nicotinate (Trafuril)-induced erythema; assay type: in vivo; details: oral, male albino guinea-pigs; for ED50: Cavia porcellus; for ED50 / Trafuril ED50: 1 hour prior to test
Method: 2 - Turfyl nicotinate (Trafuril) -induced erythema
A slight modification of the HAINING method (Br. Jl. Pharmacol., 1963, 21, 104-12) is used:
The test is carried out with homogeneous lots of 6-12 male albino guinea-pigs weighing 300-400 g, after careful depilation of the skin of their backs on the previous day.
On the day of the test, a disk for antibiotic sensitivity determination impregnated with a 5% alcoholic Turfyl nicotinate solution is applied during one minute on the lumbar area.
The effect produced is recorded after five minutes.
The results are rated according to an "all or nothing" scale, according to whether or not an erythema appears at the locus of application of the disk.
The treatment is administered orally one hour prior to the test, under an uniform volume of 1 ml/kg body weight; the test materials are homogeneously suspended with 3% gum arabic.
The reference animals are administered an equal volume of carrier.
The percent erythema obtained in the treated animals is compared with that obtained in the simultaneously tested reference lot.

[6] = test system: adjuvant arthritis (Mycobacterium butyricum); assay: Adjuvant arthritis; assay type: in vivo; details: at 20 mg/kg; oral, daily, 14th to 28th day; male rats
Method: According to the works by PEARSON C. M. (J. Chronic. Dis., 1963, 16, 863-74), JONES R. D. and WARD J. R. (Recent progress in hormone research, vol. XIX, 1963, Ac. Press), WARD T. R., JONES R. S. (Arthritis and Rheumatism, 1962, 5, 557-64).
The tests are carried out in male rats weighing 151 g ± 20 g. On day 0, the animals are given intradermally, at the base of the tail, an 0.05 ml injection of a suspension of Mycobacterium butyricum in paraffin oil (12 mg killed microbial bodies/ml). The animals are selected on the 14th day and are distributed into homogeneous lots of 15 animals.
The treatment is administered orally, daily, from the 14th to the 28th day.
The chronic arthritis is evaluated according to two criteria:
Arthritis index, by separate scoring of the injuries (erythema, edema, distortions) of each of the four limbs (according to a scoring scale from 0 to 3; maximum score: 12) in each animal on the 14th day, the 18th day, the 21st day, the 24th day and the 28th day (the scoring is effected blind, by two different experimenters).
Sedimentation rate according to KOWARSKI (pipette held at an angle of 45°; recording time: 30 minutes).
The blood sample is taken by the retro-orbicular route. The determination is effected on the 14th, the 21st and the 28th day. […]

[7] = test system: Bradykinine-induced bronchoconstriction; assay: Anti-bradykinine activity (Konzett and Rossler technique); assay type: in vivo, guinea-pig; details: I.V., dosage of 100 γ/kg; bradykinine 20 γ/kg I.V.
From the text: c. Anti-bradykinine activity
The antagonistic action of the compound described in Example 1 was studied with respect to a Bradykinine-induced bronchoconstriction in guinea-pig (20 γ/kg I.V.).
The technique used was the conventional technique described by KONZETT and ROSSLER (Arch. Exp. Path. Pharmakol., 195, 71-74) and later by HARICHAUX (C.R. Soc. Biol., 158, 12, 2437-2441).

For `CC(C(=O)O)c1cccc(C(=O)c2cc3ccccc3o2)c1` (racemic) [Example 1, 2-[3-(2-benzofuroyl)-phenyl]-propionic acid], the LD50 at 336 h [1] was 1300 mg/kg, the LD50 at 336 h [2] was 2500 mg/kg and the ED50 [3] was 0.72 mg/kg. For the same compound, the ED50 [4] was 9 mg/kg, the ED50 [5] was 3.6 mg/kg and the “Activity in adjuvant arthritis” value [6] was “active”. The “Inhibition of bradykinine-induced bronchospasm” value [7] was “inhibited”.
For `O=C(O)Cc1ccc(C(=O)c2cc3ccccc3o2)cc1` [Example 2, [4-(2-benzofuroyl)-phenyl]acetic acid], the Siegmund percent protection ([3]; 50 mg) was 28% and the “Carrageenin-induced edema percent protection” value ([4]; 50 mg) was 15%.
With `O=C(O)Cc1cccc(C(=O)c2cc3ccccc3o2)c1` [Example 3, [3-(2-Benzofuroyl)-phenyl]acetic acid] the Siegmund percent protection ([3]; 10 mg) was 32%, the Siegmund percent protection ([3]; 50 mg) was 50% and the “Carrageenin-induced edema percent protection” value ([4]; 100 mg) was 10%. The Trafuril percent protection ([5]; 100 mg) was 17%.
In the case of `CC(C(=O)O)c1ccc(C(=O)c2cc3ccccc3o2)cc1` (stereo not shown) [Example 4, 2-[4-(2-Benzofuroyl)-phenyl]propionic acid], the ED50 [3] was 5 mg/kg, the ED50 [4] was 170 mg/kg and the ED50 [5] was 115 mg/kg.
In the case of `Cc1c(C(=O)c2ccc(CC(=O)O)cc2)oc2ccccc12` [Example 5, 4-[2-(3-Methyl-benzofuroyl)]-phenyl acetic acid], the Siegmund percent protection ([3]; 50 mg) was 14% and the “Carrageenin-induced edema percent protection” value ([4]; 100 mg) was 15%.
In the case of `COc1ccc(C(C)C(=O)O)cc1C(=O)c1cc2ccccc2o1` (stereo not shown) [Example 6, 2-[3-(2-benzofuroyl)-4-methoxy-phenyl]propionic acid], the ED50 [3] was about 15 mg/kg and the ED50 [4] was over 20 mg/kg.
Work on `COc1ccc2oc(C(=O)c3cccc(C(C)C(=O)O)c3)cc2c1` (stereo not shown) [Example 7] yielded an ED50 [3] of under 60 mg/kg and an ED50 [4] of under 20 mg/kg.
For `CC(C(=O)O)c1cccc(C(=O)c2cc3ccccc3o2)c1` (stereo not drawn) [Example 9, d-2-[3-(2-Benzofuroyl)-phenyl]propionic acid], the “Siegmund ED50” value [3] was under 6 mg/kg, the “Carrageenin-induced edema ED50” value [4] was 8 mg/kg and the “Trafuril ED50” value [5] was 2.3 mg/kg.
For `CC(C(=O)O)c1cccc(C(=O)c2cc3ccccc3o2)c1` (stereo not drawn) [Example 10, l-2-[3-(2-Benzofuroyl)-phenyl]propionic acid], the “Siegmund ED50” value [3] was under 6 mg/kg, the “Carrageenin-induced edema ED50” value [4] was about 11.5 mg/kg and the “Trafuril ED50” value [5] was 8 mg/kg.

Source: US3963758A, “2-(Benzofuroyl)phenyl acetic acids” (Serdex - Societe d'Etudes, de Recherches, de Diffusion et …, priority 1973, dated 1976)
